Experimental data as given in US10292992B2, “Selective high-affinity polydentate ligands and methods of making such” (LAWRENCE LIVERMORE NATIONAL SECURITY, LLC, priority 2008, dated 2019).
Entries after “also recorded” stand apart in the source; their conditions may differ. Values belong to the compound of their own block, whether it stands above or below them.

What was measured:
[1] = test system: HLA-DR10 protein; assay: Surface plasmon resonance binding of SHALs to isolated HLA-DR10 protein; parameters: species or system human
Description: In certain embodiments, the binding affinities of the best SHALs can be estimated by mass spectrometry of the SHAL-target complexes, followed by a more accurate surface plasmon resonance (SPR) spectroscopy (Shuck (1997) Annu Rev Biophys Biomol Struct., 26: 541-566; Van Regenmortal (2001) Cell Mol Life Sci., 58: 794-800) measurement of the SHAL-target binding affinity using for example, the IASYS Plus or BiaCore instruments. In order to perform the SPR measurement, biotin can be added to the linker through a third functional group (as described above) and the SHAL can be bound to commercially available streptavidin coated chips. […] Experiments can be performed to test the selectivity of SHAL binding to targets in the presence of molecules related to the targets. Thus, for example, where the SHAL is directed to HLA-DR10, the SHAL can be evaluated for its ability to bind target molecules in the presence of Raji cell surface proteins extracted and separated by affinity chromatography. After treating the gel with the biotinylated SHAL and rinsing out excess unbound SHAL, the location of the bound SHAL can be detected by staining with Rhodamine tagged streptavidin.
Protein binding experiments were conducted using surface plasma resonance on a Biacore 3000 (Biacore, Piscataway, N.J.) at 25° C. A research grade streptavidin immobilized chip (SA chip, Biacore) was preconditioned and normalized according to the manufacturers instructions. Biotin labeled SHALs were dissolved in DMSO and diluted in 1.05×PBS (Biacore) to a final concentration of 1×PBS pH 7.4, 5% DMSO, to match the running buffer. These SHALs were injected over the flow cell to yield a surface density of 500-1000RU (response units). Biotin (50 μM E-Z Link Amine-PEO2-Biotin, Pierce) was injected over all cells for 1 minute at 20 μl/min as a block to reduce non-specific binding. One flow cell was used as a reference cell and a different SHAL was immobilized on each of the three other cells.
Experiments measuring the binding of HLA-DR10 to the SHALs were carried out at a flow rate of 30 μl/minute in PBS pH7.4 running buffer using all 4 flow cells. HLA-DR10 isolated from Raji cells (Rose et al. (1996) Cancer Immunol Immunother 43:26-30) was diluted in running buffer to a final concentration ranging from […] and a series of concentrations were run randomly in triplicate. Protein was injected for 3 minutes, allowed to dissociate for 5 minutes followed by regeneration of the surface using a 1 minute injection of 0.1% sodium dodecylsulfate (SDS) followed by a washing step with a 2 minute injection of running buffer. The data, which were double referenced by subtracting the blank reference surface and an average of 5 blank injections, were processed using the program SCRUBBER (University of Utah).
Using homology modeling, HLA-DR amino acid residues critical for Lym-1 binding were mapped on a 3-D model of the HLA-DR10ß subunit (Balhorn et al, (2007) Clin. Cancer Res., 13(Suppl. 18): S5621-S5628). Cavities within the Lym-1 epitopic surface of the protein were identified using SPHGEN (Kuntz et al. (1982) J. Mol Biol. 161: 269-288; Desjarlais et al. (1988) J. Med. Chem., 31: 722-729). After computational ligand docking for each of the cavities, a combination of NMR spectroscopy, surface plasmon resonance (BIAcore 3000; Biacore, Piscataway, N.J.) and competitive binding experiments were used to confirm ligand binding to HLA-DR10 protein. […]

[2] = test system: Raji cells; assay: 3-D confocal microscopy, Raji cells; format: cell-based, human; conditions: biotinylated reagent, 1 hr, 10 μM SHAL or 10 nM chLym-1
Description: (§1) SHAL binding and internalization by Raji and Jurkat's cells was assessed using the method described previously by O'Donnell et al. (O'Donnell et al. (1998) Prostate 37:91-97). Experiments were conducted comparing the binding of (DvLPBaPPP)2LLDo (the parent SHAL), its hexa-arginine analog (DvLPBaPPP)2LArg6AcLLDo, and chimeric Lym-1 (chLym-1) to Raji cells. All steps were performed at 20° C., unless indicated.
(§2) Four million Raji cells (>92% viability) in log phase growth were pelleted at 300×g, washed, and blocked for 30 min in 1 ml of 1% fraction V BSA in PBS, with constant rotation. Cells were then incubated 1 hr, at 1 million per 250 μl, with either 1% BSA in PBS or a biotinylated primary reagent: 10 nM chLym-1, 10 μM parent SHAL, or 10 μM hexa-arginine SHAL. After four washes (two in 1% BSA in PBS, two in PBS), 50 μl of the cell suspensions was applied to freshly poly-L-Lysine coated slides, and cells were allowed to adhere for 10 min in a humid chamber. Fixation and permeabilization were performed at −20° C. by using a 4 min exposure to methanol. Jurkat's cells were treated in the same manner as a control.
Slides were then washed twice in PBS and blocked in 10% fetaplex serum (Gemini Bioproducts, West Sacramento, Calif.) in PBS for 15 min and washed once in PBS. The detection reagent, Streptavidin AlexaFluor 610 (Invitrogen, Carlsbad, Calif.) was diluted 1/500 in diluent, 100 μl was applied; a parafilm cover slip was layered over the solution to prevent evaporation. The slides were incubated in a humid chamber for 30 min., washed 5 times for 5 min each in PBS, and rinsed briefly in double distilled H2O. After the slides dried, cover slips were mounted with ProlongGold with 4′,6-diamidino-2-phenylindole (DAPI, Invitrogen, Carlsbad, Calif.). The slides were viewed with an Olympus FV1000 laser scanning confocal microscope and data were collected as Z-scans at 160×, with focal sections being taken 1 μm apart through the cell.

[3] = test system: Jurkat's cells (cells lacking HLA-DR10); assay: 3-D confocal microscopy, Jurkat's cells; format: cell-based, human; conditions: biotinylated reagent, 1 hr
Description: as §1, §2
Slides were then washed twice in PBS and blocked in 10% fetaplex serum (Gemini Bioproducts, West Sacramento, Calif.) in PBS for 15 min and washed once in PBS. […]

[4] = General safety study in healthy mice; format: in vivo; conditions: 4 weeks; for adverse effects / toxicity: up to 2000 times the efficacy dose i.p.
Description: Each of 3 groups of 7 healthy Balb/c mice were given PBS, 20 or 200 μg of DOTA-chelated SHAL i.p., that is, 200 or 2,000 times the SHAL efficacy dose. Immediately prior to intervention, the mice were observed, weighed and blood counts (red, white and platelets) obtained, then the mice were observed daily, weighed 3 times each week and blood counts measured weekly for 4 weeks after intervention.

- Kd ([1]; biotinylated versions of the SHALs immobilized on streptavidin chip, HLA-DR10 isolated from Raji cells): ~34 nM
SMILES: CC(=O)NC(CCCNC(=N)N)C(=O)NC(CCCNC(=N)N)C(=O)NC(CCCNC(=N)N)C(=O)NC(CCCNC(=N)N)C(=O)NC(CCCNC(=N)N)C(=O)NC(CCCNC(=N)N)C(=O)NCCCCC(NC(=O)C(CCCCNC(=O)COCCOCCNC(=O)COCCOCCNC(=O)COCCOCCNC(=O)C(CCCCNC(=O)COCCOCCNC(=O)c1ccc(NC(=O)C(CCCNC(=N)N)NC(=O)c2ccccc2)cc1)NC(=O)C(NS(=O)(=O)c1ccc(N=Nc2ccc(N(C)C)cc2)cc1)C(C)C)NC(=O)COCCOCCNC(=O)COCCOCCNC(=O)COCCOCCNC(=O)C(CCCCNC(=O)COCCOCCNC(=O)c1ccc(NC(=O)C(CCCNC(=N)N)NC(=O)c2ccccc2)cc1)NC(=O)C(NS(=O)(=O)c1ccc(N=Nc2ccc(N(C)C)cc2)cc1)C(C)C)C(=O)NC(CCCCNC(=O)CN1CCN(CC(=O)O)CCN(CC(=O)O)CCN(CC(=O)O)CC1)C(=O)O (stereo not shown) [(DvLPBaPPP)2LArg6AcLLDo]
- binding to isolated HLA-DR10 (in words) [1]: did not interfere with SHAL binding to the protein
- SHAL binding, uptake and localization in Raji cells [2]: internalized
- SHAL binding, uptake and localization in Raji cells ([2]; listed as hexa-arginine SHAL): localized in the nucleus; also recorded: significantly more; also recorded: associated with the nucleus
- SHAL binding, uptake and localization in Raji cells ([2]; listed as hexa-arginine SHAL analog): associated with the nucleus
- SHAL binding, uptake and localization in Raji cells ([2]; listed as hexa-arginine analog): marked cytoplasmic binding but also intranuclear targeting; also recorded: taken up and internalized
- SHAL uptake in Jurkat's cells [3]: minimal SHAL uptake

SMILES: CC(C)C(NS(=O)(=O)c1ccc(N=Nc2ccc(N(C)C)cc2)cc1)C(=O)NCCOCCOCC(=O)NC(CCCCNC(=O)C(CCCCNC(=O)CC(=O)Nc1ccccc1Oc1ncc(C(F)(F)F)cc1Cl)NC(=O)COCCOCCNC(=O)c1ccc(N2CCN(Cc3ccc(Cl)cc3)CC2)c([N+](=O)[O-])c1)C(=O)NCCOCCOCC(=O)NC(CCCCNC(=O)CN1CCN(CC(=O)O)CCN(CC(=O)O)CCN(CC(=O)O)CC1)C(=O)O (stereo not shown) [tridentate SHAL]
- binding to isolated HLA-DR10 (in words) [1]: better than nanomolar
- SHAL binding to HLA-DR10 on Lym-1 addition ([1]; isolated or recombinant HLA-DR10 protein): blocked by Lym-1 addition
- body weight ([4]; 20 or 200 μg DOTA-chelated SHAL i.p. (200 or 2,000 times efficacy dose)): gained weight
- blood counts ([4]; 20 or 200 μg DOTA-chelated SHAL i.p.): stable blood counts
- adverse effects / toxicity [4]: no evidence for toxicity; also recorded: did not exhibit signs of adverse events
- adverse effects / toxicity ([4]; listed as SHAL): no adverse effects
